A short description of the experiment: Oxygen radical absorbance capacity (ORACFL-LIPO) assay with fluorescein probe, RMCD, AAPH, Trolox standard. The note with it: for Antioxidant activity (ORAC), μmole Trolox equivalent per gram sample: 75 mM phosphate buffer pH 7.4, 7% RMCD; for Antioxidant activity (ORAC) per 400 IU: μmole TE/g × total weight in grams of formula which gives 400 IU. As to the method: The antioxidant activities of natural d-alpha-tocopherol, mixed tocopherols and tocotrienols, and formulations comprising all forms of vitamin E were determined employing an improved oxygen radical absorbance capacity (ORAC) assay using fluorescein (FL) as a fluorescent probe, randomly methylated β-cyclodextrin (RMCD) to enhance solubility of lipophilic antioxidants in aqueous medium, 2,2′-azobis (2-amidino-propane) dihydrochloride (AAPH) as peroxyl radical generator, and Trolox as a standard in 75 mM phosphate buffer.
The antioxidant activity, commonly referred to as oxygen radical absorbance capacity (ORAC), of a lipophilic substance was measured employing a newly developed assay. This assay is based on the use of: (a) fluorescein (FL) as the fluorescent probe, (b) randomly methylated β-cyclodextrin (RMCD) as a molecular host to enhance the solubility of lipophilic antioxidants in aqueous solution, (c) 2,2′-azobis (2-amidino-propane) dihydrochloride (AAPH) as a peroxyl radical generator, and (d) 6-hydroxy-2,5,7,8-tetramethyl-2-carboxylic acid (Trolox) as a standard in 75 mM phosphate buffer (pH 7.4).
The antioxidant activities of vitamin E formulations comprising all compounds of tocopherols and tocotrienols were determined employing an improved oxygen radical absorbance capacity (abbreviated ORACFL-LIPO) assay using fluorescein (FL) as the fluorescent probe, randomly methylated β-cyclodextrin (RMCD) as the water solubility enhancer for lipophilic antioxidants in 75 mM phosphate buffer (pH 7.4).
In the presence ofperoxyl radicals derived from AAPH, the indicator FL gradually loses its fluorescence. The antioxidant activity of a substance is measured by its ability to retain the fluorescence of FL in the presence of peroxyl radicals. The net protection of FL was measured as previously described by Ou et al.
All other standards were commercially available form Sigma or Aldrich. All ORAC analyses were performed on a COBAS FARA II analyzer (Roche Diagnostic System Inc., Branchburg, NJ) using an excitation wavelength of 493 nm and an emission filter of 515 nm.
Approximately 0.5 g of sample was dissolved in 20 mL of acetone. An aliquot of sample solution was appropriately diluted with 7% RMCD solvent (w/v) made in a 50% acetone-water mixture (v/v) and was shaken for 1 hr at room temperature on an orbital shaker at 400 rpm. The sample solution was ready for analysis after further dilution with 7% RMCD solvent.
The automated ORAC assay was carried out on a COBAS FARA II spectrofluorometer centrifugal analyzer as previously described (9). With the exception of samples and Trolox standards, which were made in 7% RMCD solvent, all other reagents were prepared at 75 mM phosphate buffer (pH 7.4). In the final assay mixture (0.4 mL total volume), FL (6.3×10^−8 M) was used as a target of free radical attack and AAPH (1.28×10^−2 M) was used as a peroxyl radical generator. 7% RMCD was used as the blank, and Trolox (12.5, 25,50, and 100 μM) was used as the control standard. The analyzer was programmed to record the fluorescence of FL every minute after the addition of AAPH. All measurements were expressed relative to the initial reading. Final results were calculated using the differences of areas under the FL decay curves between the blank and a sample.
The antioxidant activity, commonly referred to as oxygen radical absorbance capacity (ORAC), of a lipophilic substance was measured employing a newly developed assay. This assay is based on the use of: (a) fluorescein (FL) as the fluorescent probe, (b) randomly methylated β-cyclodextrin (RMCD) as a molecular host to enhance the solubility of lipophilic antioxidants in aqueous solution, (c) 2,2′-azobis (2-amidino-propane) dihydrochloride (AAPH) as a peroxyl radical generator, and (d) 6-hydroxy-2,5,7,8-tetrmethyl-2-carboxylic acid (Trolox) as a standard in 75 mM phosphate buffer (pH 7.4).
In the presence of peroxyl radicals derived from AAPH, the indicator FL gradually loses its fluorescence. […]

The source of these data is patent US7329688B2, “Natural vitamin E compositions with superior antioxidant potency” (Soft Gel Technologies, Inc., priority 2002, dated 2008).

`Cc1c(C)c2c(c(C)c1O)CC[C@@](C)(CCC[C@H](C)CCC[C@H](C)CCCC(C)C)O2` [d-alpha-Tocopheral (87%), d-alpha-tocopherol]: the “Antioxidant activity (ORAC), μmole Trolox equivalent per gram sample” value is, setting by setting: (Table 1) 1,293 ± 64 μmole TE/g; (Table 1, listed as alpha-tocopherol (87%)) 1,293 μmole TE/g; (Table 1, listed as d-alpha-tocopherol (87%)) 1,293 μmole TE/g; (Table 2) 1,293 ± 80 μmole TE/g. The “Antioxidant activity (ORAC) per 400 IU” value (Table 1) came to 398 μmole TE/400IU and the “Antioxidant activity (ORAC) per 400 IU” value (Table 2) was found to be 413 μmole TE/400IU.
Regarding `CC(=O)Oc1c(C)c(C)c2c(c1C)CCC(C)(CCC[C@H](C)CCC[C@H](C)CCCC(C)C)O2` (stereo partly drawn) [Alpha-Tocopherol Acetate], where the note is “Table 1”, the “Antioxidant activity (ORAC), μmole Trolox equivalent per gram sample” value is listed as 14 ± 10 μmole TE/g. For the same molecule, the “Antioxidant activity (ORAC) in words, relative to d-alpha-tocopherol” value (qualitative statement) is given as “no antioxidant activity”.
